Tests used:
[1] = target: T1, alpha2B adrenergic receptors (Homo sapiens, UniProt P18089); assay: Receptor Selection and Amplification Technology (RSAT) assay, alpha2B; format: cell-based; conditions: for EC50: NA = not active at concentrations less than 10 micromolar, read-out: Alpha 2B EC50; for Alpha 2B intrinsic activity: fraction of maximal effect of standard full agonist brimonidine (UK14304)
T1 construct: expressed in transfected cells; host or cells: NIH-3T3
T1 sequence (P18089 1-450): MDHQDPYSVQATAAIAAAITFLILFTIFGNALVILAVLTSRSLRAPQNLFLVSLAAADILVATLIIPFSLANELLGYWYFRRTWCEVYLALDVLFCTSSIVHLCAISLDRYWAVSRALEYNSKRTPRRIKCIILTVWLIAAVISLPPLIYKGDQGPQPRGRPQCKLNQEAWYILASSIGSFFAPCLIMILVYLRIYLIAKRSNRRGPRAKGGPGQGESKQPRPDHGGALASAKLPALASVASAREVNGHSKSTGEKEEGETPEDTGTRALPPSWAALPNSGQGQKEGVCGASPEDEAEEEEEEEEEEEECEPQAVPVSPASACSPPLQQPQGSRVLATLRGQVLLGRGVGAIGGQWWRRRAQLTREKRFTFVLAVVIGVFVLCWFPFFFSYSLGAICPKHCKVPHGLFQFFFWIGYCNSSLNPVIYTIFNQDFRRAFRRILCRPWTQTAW
Text: (§1) The imidazole-2-thione compounds of the invention are agonists of alpha2 adrenergic receptors, particularly they tend to be specific or selective agonists of alpha2B and/or to a lesser extent alpha2C adrenergic receptors, in preference over alpha2A adrenergic receptors. […] Al., 1995, Pharmacol. Toxicol. 76, pp. 308-311 (incorporated herein by reference) and is also described below. Another reference pertinent to this assay is Conklin et al. (1993) Nature 363:274-6, also incorporated herein by reference.
(§2) Receptor Selection and Amplification Technology (RSAT) Assay
(§3) The RSAT assay measures a receptor-mediated loss of contact inhibition that results in selective proliferation of receptor-containing cells in a mixed population of confluent cells. The increase in cell number is assessed with an appropriate transfected marker gene such as β-galactosidase, the activity of which can be easily measured in a 96-well format. Receptors that activate the G protein, Gq, elicit this response. Alpha2 receptors, which normally couple to Gi, activate the RSAT response when coexpressed with a hybrid Gq protein that has a Gi receptor recognition domain, called Gq/i5.
(§4) NIH-3T3 cells are plated at a density of 2×10^6 cells in 15 cm dishes and maintained in Dulbecco's modified Eagle's medium supplemented with 10% calf serum. One day later, cells are cotransfected by calcium phosphate precipitation with mammalian expression plasmids encoding p-SV-β-galactosidase (5-10 μg), receptor (1-2 μg) and G protein (1-2 μg). 40 μg salmon sperm DNA may also be included in the transfection mixture. Fresh media is added on the following day and 1-2 days later, cells are harvested and frozen in 50 assay aliquots. Cells are thawed and 100 μl added to 100 μl aliquots of various concentrations of drugs in triplicate in 96-well dishes. Incubations continue 72-96 hr at 37 EC. After washing with phosphate-buffered saline, β-galactosidase enzyme activity is determined by adding 200 μl of the chromogenic substrate (consisting of 3.5 mM o-nitrophenyl-β-D-galactopyranoside and 0.5% nonidet P-40 in phosphate buffered saline), incubating overnight at 30 EC and measuring optical density at 420 nm. The absorbance is a measure of enzyme activity, which depends on cell number and reflects a receptor-mediated cell proliferation. The EC50 and maximal effect of each drug at each alpha2 receptor is determined. The efficacy or intrinsic activity is calculated as a ratio of the maximal effect of the drug to the maximal effect of a standard full agonist for each receptor subtype. Brimonidine, also called UK14304, the chemical structure of which is shown below, is used as the standard agonist for the alpha2A, alpha2B and alpha2C receptors.
(§5) The results of the RSAT assay with several exemplary compounds of the invention are disclosed in Table 1 above together with the chemical formulas of these examplary compounds. […] NA stands for “not active” at concentrations less than 10 micromolar. As is known EC50 is the concentration at which half of a given compound's maximal activity is observed.

[2] = target: T2, alpha2C adrenergic receptors (Homo sapiens, UniProt P18825); assay: Receptor Selection and Amplification Technology (RSAT) assay, alpha2C; format: cell-based; conditions: for EC50: NA = not active at concentrations less than 10 micromolar, read-out: Alpha 2C EC50; for Alpha 2C intrinsic activity: fraction of maximal effect of standard full agonist brimonidine (UK14304)
T2 construct: expressed in transfected cells; host or cells: NIH-3T3
T2 sequence (P18825 1-462): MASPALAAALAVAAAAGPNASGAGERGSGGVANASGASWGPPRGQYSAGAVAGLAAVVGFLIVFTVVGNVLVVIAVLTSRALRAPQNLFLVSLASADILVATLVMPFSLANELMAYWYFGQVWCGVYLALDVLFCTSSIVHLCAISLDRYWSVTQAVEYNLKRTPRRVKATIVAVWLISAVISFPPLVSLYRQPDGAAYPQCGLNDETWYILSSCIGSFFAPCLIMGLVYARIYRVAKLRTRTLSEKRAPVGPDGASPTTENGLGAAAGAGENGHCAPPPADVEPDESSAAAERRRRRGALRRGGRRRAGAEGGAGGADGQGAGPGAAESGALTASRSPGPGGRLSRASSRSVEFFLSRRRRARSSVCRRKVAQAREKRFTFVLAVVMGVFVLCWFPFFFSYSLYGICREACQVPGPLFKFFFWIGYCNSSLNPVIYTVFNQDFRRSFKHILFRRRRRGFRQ
Text: as §1, §2, §3, §4, §5

EC50 [1] | Alpha 2B intrinsic activity [1] | EC50 [2] | Alpha 2C intrinsic activity [2] | SMILES
81 nM | 0.81 | – | – | CC1=CC(Cc2c[nH]c(=S)[nH]2)CC1 (stereo not shown)
86 nM | 0.78 | – | – | S=c1[nH]cc(CC2CCC3=C(CCCC3)C2)[nH]1 (stereo not shown)
106 nM | 0.97 | – | – | O=C1c2ccsc2CCC1Cc1c[nH]c(=S)[nH]1 (stereo not shown)
815 nM | 0.83 | – | – | O=C1C2=C(CCCC2)CCC1Cc1c[nH]c(=S)[nH]1 (stereo not shown)
18 nM | 1.0 | – | – | O=C1c2ccccc2CCC1Cc1c[nH]c(=S)[nH]1 (stereo not shown)
1150 nM | 0.37 | – | – | S=c1[nH]cc(CC2CCc3cc(Cl)ccc32)[nH]1 (stereo not shown)
6 nM | 1.08 | – | – | CCC1=C(C)CCC(Cc2c[nH]c(=S)[nH]2)C1 (stereo not shown)
17 nM | 0.65 | – | – | S=c1[nH]cc(CC2CCc3ccccc3C2)[nH]1 (stereo not shown)
850 nM | 0.71 | – | – | O=C1c2ccccc2CC1Cc1c[nH]c(=S)[nH]1 (stereo not shown)
25 nM | 0.61 | – | – | CC1=C(C)CC(Cc2c[nH]c(=S)[nH]2)CC1 (stereo not shown)
1010 nM | 0.48 | – | – | O=C1c2ccc(O)cc2CCC1Cc1c[nH]c(=S)[nH]1 (stereo not shown)
451 nM | 0.68 | – | – | CCC1=CCC(Cc2c[nH]c(=S)[nH]2)CC1 (stereo not shown)
265 nM | 0.60 | – | – | C#CC1=CCC(Cc2c[nH]c(=S)[nH]2)CC1 (stereo not shown)
61 nM | 0.72 | – | – | CC1=CCC(Cc2c[nH]c(=S)[nH]2)CC1 (stereo not shown)
41 nM | 0.83 | – | – | O=C1c2ccccc2CC[C@H]1Cc1c[nH]c(=S)[nH]1
92 nM | 0.79 | – | – | O=C1c2ccccc2CC[C@@H]1Cc1c[nH]c(=S)[nH]1
17 nM | 0.82 | – | – | S=c1[nH]cc(C2CCc3ccccc3CC2)[nH]1
286 nM | 1.16 | – | – | S=c1[nH]cc(CC2CCSc3ccccc32)[nH]1 (stereo not shown)
720 nM | 0.6 | – | – | O=C1c2cccnc2CCC1Cc1c[nH]c(=S)[nH]1 (stereo not shown)
395 nM | 0.41 | – | – | S=c1[nH]cc(C[C@H]2CCc3ccccc3C2)[nH]1
13.7 nM | 0.93 | – | – | S=c1[nH]cc(C[C@@H]2CCc3ccccc3C2)[nH]1
60 nM | 0.73 | – | – | S=c1[nH]cc(C[C@@H]2CCC3=C(CCCC3)C2)[nH]1
300 nM | 0.76 | – | – | O=C1c2ccc(F)cc2CCC1Cc1c[nH]c(=S)[nH]1 (stereo not shown)
115 nM | 0.99 | – | – | O=C1c2c(Cl)cccc2CCC1Cc1c[nH]c(=S)[nH]1 (stereo not shown)

EC50 [1] | Alpha 2B intrinsic activity [1] | EC50 [2] | Alpha 2C intrinsic activity [2] | SMILES
110 nM | 0.65 | – | – | S=c1[nH]cc(CC2Cc3ccccc3C2)[nH]1
6 nM | 0.98 | – | – | S=c1[nH]cc(C2Cc3ccccc3C2)[nH]1
30 nM | 0.75 | – | – | Fc1ccc2c(c1)CC(c1c[nH]c(=S)[nH]1)C2 (stereo not shown)
57.5 nM | 0.85 | – | – | S=c1[nH]cc(C2Cc3ccc(Cl)cc3C2)[nH]1 (stereo not shown)
5 nM | 1.03 | – | – | C[C@@H]1c2ccccc2C[C@H]1c1c[nH]c(=S)[nH]1
34.5 nM | 0.93 | – | – | Fc1cccc2c1CCC2Cc1c[nH]c(=S)[nH]1 (stereo not shown)
834 nM | 0.54 | – | – | Fc1ccc2c(c1F)CCC2Cc1c[nH]c(=S)[nH]1 (stereo not shown)
105 nM | 0.64 | – | – | Cc1ccc(C)c2c1CCC2Cc1c[nH]c(=S)[nH]1 (stereo not shown)
74 nM | 0.78 | – | – | S=c1[nH]cc(CC2CCCc3cccc(Cl)c32)[nH]1 (stereo not shown)
1590 nM | 0.74 | – | – | S=c1[nH]cc(CC2CCc3ncccc3C2)[nH]1 (stereo not shown)
6.5 nM | 0.81 | – | – | Fc1cc(F)c2c(c1)CC(c1c[nH]c(=S)[nH]1)C2 (stereo not shown)
22 nM | 1.02 | – | – | COc1cc(F)c2c(c1)CC(c1c[nH]c(=S)[nH]1)C2 (stereo not shown)
31.3 nM | 0.91 | – | – | S=c1[nH]cc(CC2CCc3c(Cl)cccc32)[nH]1 (stereo not shown)
160 nM | 0.94 | – | – | N#C/C=C1\c2ccccc2CCC1Cc1c[nH]c(=S)[nH]1 (stereo not shown)
990 nM | 0.5 | – | – | N#C/C=C1/c2ccccc2CCC1Cc1c[nH]c(=S)[nH]1 (stereo not shown)
469 nM | 0.87 | – | – | CC1=CCC(Cc2c[nH]c(=S)[nH]2)OC1 (stereo not shown)
– | – | 214 nM | 0.68 | S=c1[nH]cc(CC2CCC=C2c2ccccc2)[nH]1 (stereo not shown)
– | – | 191 nM | 0.45 | Fc1cccc(C2=CCCC2Cc2c[nH]c(=S)[nH]2)c1 (stereo not shown)
– | – | 715 nM | 0.61 | Fc1ccc(C2=CCC[C@H]2Cc2c[nH]c(=S)[nH]2)cc1
1470 nM | 0.66 | – | – | Fc1cccc(C2=CCC[C@@H]2Cc2c[nH]c(=S)[nH]2)c1
– | – | 241 nM | 0.66 | Fc1cc(F)cc(C2=CCCC2Cc2c[nH]c(=S)[nH]2)c1 (stereo not shown)
269 nM | 0.79 | – | – | CC(C)C1=C(c2ccc(F)cc2)C(Cc2c[nH]c(=S)[nH]2)CC1 (stereo not shown)
14 nM | 0.74 | – | – | S=c1[nH]cc(CC2CCc3sccc3C2)[nH]1 (stereo not shown) [drawing 22]
